For the assay, the system named is autochthonous seawater bacteria. The experiment in a line: Bacterial growth potential of antiscalants in natural seawater with an autochthonous bacterial population (flow cytometry). The class given is cell-based. The following applies: 50 mg L^−1 antiscalant, Red Sea water, 30° C. dark, 8 days, one-tail Wilcoxon signed-rank test. The procedure: The natural seawater was serially filtered to remove microbial cells and to set a desired low initial cell concentration for the growth potential assay within approximately 10,000 to 20,000 bacterial cells mL^−1. This seawater was used in the method of the present disclosure.
Natural seawater (1.0 L) was serially filtered through pre-cleaned 0.45 μm pore size and 0.2 μm pore size polyethersulfone filters (Satorius Stedium Minisart). The filters were replaced every 100 mL.
30 mL of the resulting filtered seawater with a bacterial cell concentration of 21,000±1200 cells mL^−1 was added to AOC-free 40 mL borosilicate glass vials with screw caps containing PTFE-lined silicone septa.
Antiscalants from the 8 stock solutions (3 g L^−1) were added to 8 vials to obtain 8 mixtures comprising the antiscalant at a final concentration of 50 mg L^−1.
Vials with no antiscalant addition were included as a control.
The vials were incubated at 30° C. in the dark and bacterial growth was determined by measuring cell concentrations over time using flow cytometry. Each growth potential test was conducted in three independent biological replicates.
Flow cytometry (FCM) was used to measure the bacterial cell concentration in the vials at an interval of 24 h.
To this end, 5.0 μL SYBR Green I (Invitrogen, 100× diluted in 10 mM Tris buffer pH=8.1) were added to a final 0.5 mL vial samples in amber microfuge tubes followed by mixing and incubation for 10 min in the dark at 35° C.
Stained cells were measured with a BD Accuri C6 instrument in fixed 50 μL volume mode with a sample flow rate of 35 μL min^−1. The blue 488 nm laser (50 mW) was used to collect the green fluorescence at FL1=533 30 nm, the red fluorescence FL3>670 nm, as well as intrinsic cell parameters were given by the side scattered (SSH) and forward scattered (FSH) light signals. Electronic gating was used to separate positive microbial stained signals from instrument, and water background noise as described by Prest et al. (2013).
The instrument performance was verified using Spherotech 8-peak validation beads. […]
On the technique in general: In flow cytometry, cells or beads pass a laser one at a time.
With `O=P(O)(O)CN(CP(=O)(O)O)CP(=O)(O)O` [ATMP, amino trimethylene phosphonic acid], the “bacterial growth compared to reference without antiscalant” value was “promoted bacterial growth”.

As for `O=P(O)(O)CN(CCCCCCN(CP(=O)(O)O)CP(=O)(O)O)CP(=O)(O)O` [HDTMP, hexamethylenediamine-tetra(methylenephosphonic acid)], the “bacterial growth compared to reference without antiscalant” value is “promoted bacterial growth”.

Take `CC(O)(P(=O)(O)O)P(=O)(O)O` [HEDP, 1-hydroxyethylidene-(1,1-diphosphonic acid)]: the “bacterial growth compared to reference without antiscalant” value was “did not promote bacterial growth”.

For the origin of these results see patent publication US20250270615A1, “METHOD FOR DETECTING THE MICROBIAL GROWTH POTENTIAL OF AN ANTISCALANT COMPOSITION IN NATURAL SEAWATER” (ACWA POWER Company, priority 2024, published 2025).
